Measurements published in patent US10647713B2 (Nimbus Lakshmi, Inc., priority 2016, dated 2020).

Biological target: human TYK2 (JH2domain-pseudokinase) (Homo sapiens (Human), UniProt P29597)
Assay: TYK2 JH2 Domain Binding Assay (KINOMEscan, DiscoveRx)
Settings: 11-point dilution, duplicate
Summary of the method: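 TYK2 JH2 (G556–D888)–NFkB DBD fusion, DNA-tagged, from HEK293 extracts (<0.1 nM) competed against immobilised biotinylated ligand for 1 h at room temperature, 0.9% DMSO. Bead-retained kinase quantified by qPCR; Kd from 11-point 3-fold series (top 30,000 nM, duplicate), Hill fit with slope −1.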

Sequence of human TYK2 (JH2domain-pseudokinase) (P29597 556-888): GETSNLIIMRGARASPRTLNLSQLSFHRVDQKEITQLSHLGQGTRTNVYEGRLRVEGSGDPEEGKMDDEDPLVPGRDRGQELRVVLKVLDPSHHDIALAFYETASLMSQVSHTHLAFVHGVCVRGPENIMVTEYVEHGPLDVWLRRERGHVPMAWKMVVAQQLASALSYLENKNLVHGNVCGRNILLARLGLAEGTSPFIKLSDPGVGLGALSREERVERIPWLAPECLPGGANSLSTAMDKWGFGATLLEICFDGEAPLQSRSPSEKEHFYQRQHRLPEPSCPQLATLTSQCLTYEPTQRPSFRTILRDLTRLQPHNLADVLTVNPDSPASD

Row | Structure (SMILES) | Kd [nM]
1 | Cn1ccc(-c2ccc(Nc3cc(NC(=O)C4CC4)nc4[nH]c(C(F)F)nc34)c(S(C)(=O)=O)c2)n1 [I-61, N-(2-(difluoromethyl)-7-((4-(1-methyl-1H-pyrazol-3-yl)-2-(methylsulfonyl)phenyl)amino)-3H-imidazo[4,5-b]pyridin-5-yl)cyclopropanecarboxamide] | 0.1 to 0.5
2 | Cn1cnc(-c2ccc(Nc3cc(NC(=O)C4CC4)nc4[nH]c(C(F)F)nc34)c(S(C)(=O)=O)c2)c1 [I-62, N-(2-(difluoromethyl)-7-((4-(1-methyl-1H-imidazol-4-yl)-2-(methylsulfonyl)phenyl)amino)-3H-imidazo[4,5-b]pyridin-5-yl)cyclopropanecarboxamide] | 0.1 to 0.5
3 | Cc1ccn(-c2ccc(Nc3cc(NC(=O)C4CC4)nc4[nH]c(C(F)F)nc34)c(S(C)(=O)=O)c2)n1 [I-63, N-(2-(difluoromethyl)-7-((4-(3-methyl-1H-pyrazol-1-yl)-2-(methylsulfonyl)phenyl)amino)-3H-imidazo[4,5-b]pyridin-5-yl)cyclopropanecarboxamide] | 0.5 to 1
4 | CN(c1cc(-c2cn(C)cn2)ccc1Nc1cc(NC(=O)C2CC2)nc2[nH]c(C(F)F)nc12)S(C)(=O)=O [I-64, N-(2-(difluoromethyl)-7-((4-(1-methyl-1H-imidazol-4-yl)-2-(N-methylmethylsulfonamido)phenyl)amino)-3H-imidazo[4,5-b]pyridin-5-yl)cyclopropanecarboxamide] | 0.1 to 0.5
5 | CN(c1cc(-c2cnn(C)c2)ccc1Nc1cc(NC(=O)C2CC2)nc2[nH]c(C(F)F)nc12)S(C)(=O)=O [I-65, N-(2-(difluoromethyl)-7-((4-(1-methyl-1H-pyrazol-4-yl)-2-(N-methylmethylsulfonamido)phenyl)amino)-3H-imidazo[4,5-b]pyridin-5-yl)cyclopropanecarboxamide] | 0.1 to 0.5
6 | COc1c(Nc2cc(Nc3cnc(C(C)(C)OC)c(C#N)n3)nc3[nH]c(C(F)F)nc23)cccc1-c1nnn(C)n1 [I-80, 6-((2-(difluoromethyl)-7-((2-methoxy-3-(2-methyl-2H-tetrazol-5-yl)phenyl)amino)-3H-imidazo[4,5-b]pyridin-5-yl)amino)-3-(2-methoxypropan-2-yl)pyrazine-2-carbonitrile] | 1 to 10
7 | CS(=O)(=O)c1cc(F)ccc1Nc1cc(NC(=O)C2CC2)nc2[nH]c(C(F)F)nc12 [I-85, N-(2-(difluoromethyl)-7-((4-fluoro-2-(methylsulfonyl)phenyl)amino)-3H-imidazo[4,5-b]pyridin-5-yl)cyclopropanecarboxamide] | 0.5 to 1
8 | CN(c1ccccc1Nc1cc(Nc2cccc(C(F)(F)F)n2)nc2[nH]c(C(F)F)nc12)S(C)(=O)=O [I-87, N-(2-((2-(difluoromethyl)-5-((6-(trifluoromethyl)pyridin-2-yl)amino)-3H-imidazo[4,5-b]pyridin-7-yl)amino)phenyl)-N-methylmethanesulfonamide] | 0.5 to 1
9 | CN(c1cc(N2CCC2)ccc1Nc1cc(NC(=O)C2CC2)nc2[nH]c(C(F)F)nc12)S(C)(=O)=O [I-89, N-(7-((4-(azetidin-1-yl)-2-(N-methylmethylsulfonamido)phenyl)amino)-2-(difluoromethyl)-3H-imidazo[4,5-b]pyridin-5-yl)cyclopropanecarboxamide] | 0.5 to 1
10 | Cc1ncc(Nc2cc(Nc3ccc(Cl)cc3N(C)S(C)(=O)=O)c3nc(C(F)F)[nH]c3n2)nc1C [I-93, N-(5-chloro-2-((2-(difluoromethyl)-5-((5,6-dimethylpyrazin-2-yl)amino)-3H-imidazo[4,5-b]pyridin-7-yl)amino)phenyl)-N-methylmethanesulfonamide] | 0.1 to 0.5
11 | CN(c1cc(Cl)ccc1Nc1cc(Nc2cccc(C#N)n2)nc2[nH]c(C(F)F)nc12)S(C)(=O)=O [I-94, N-(5-chloro-2-((5-((6-cyanopyridin-2-yl)amino)-2-(difluoromethyl)-3H-imidazo[4,5-b]pyridin-7-yl)amino)phenyl)-N-methylmethanesulfonamide] | 0.5 to 1
12 | Cc1ccc(Nc2cc(NC(=O)C3CC3)nc3[nH]c(C(F)F)nc23)c(N(C)S(C)(=O)=O)c1 [I-95, N-(2-(difluoromethyl)-7-((4-methyl-2-(N-methylmethylsulfonamido)phenyl)amino)-3H-imidazo[4,5-b]pyridin-5-yl)cyclopropanecarboxamide] | 0.1 to 0.5
13 | COCc1ccc(Nc2cc(NC(=O)C3CC3)nc3[nH]c(C(F)F)nc23)c(N(C)S(C)(=O)=O)c1 [I-96, N-(2-(difluoromethyl)-7-((4-(methoxymethyl)-2-(N-methylmethylsulfonamido)phenyl)amino)-3H-imidazo[4,5-b]pyridin-5-yl)cyclopropanecarboxamide] | 0.1 to 0.5
14 | Cc1ccc(Nc2cc(Nc3cnc(C)c(C)n3)nc3[nH]c(C(F)F)nc23)c(N(C)S(C)(=O)=O)c1 [I-97, N-(2-((2-(difluoromethyl)-5-((5,6-dimethylpyrazin-2-yl)amino)-3H-imidazo[4,5-b]pyridin-7-yl)amino)-5-methylphenyl)-N-methylmethanesulfonamide] | > 10
15 | COc1c(Nc2cc(NC(=O)C3CC3)nc3[nH]c(C)nc23)cccc1-c1nnn(C)n1 [I-98, N-(7-((2-methoxy-3-(2-methyl-2H-tetrazol-5-yl)phenyl)amino)-2-methyl-3H-imidazo[4,5-b]pyridin-5-yl)cyclopropanecarboxamide] | 0.5 to 1
16 | COc1c(Nc2cc(Nc3ccc(C)nn3)nc3[nH]c(C)nc23)cccc1-c1nnn(C)n1 [I-100, N-7-(2-methoxy-3-(2-methyl-2H-tetrazol-5-yl)phenyl)-2-methyl-N5-(6-methylpyridazin-3-yl)-3H-imidazo[4,5-b]pyridine-5,7-diamine] | 0.1 to 0.5
17 | COc1c(Nc2cc(Nc3ccc(C)cn3)nc3[nH]c(C)nc23)cccc1-c1nnn(C)n1 [I-101, N7-(2-methoxy-3-(2-methyl-2H-tetrazol-5-yl)phenyl)-2-methyl-N5-(5-methylpyridin-2-yl)-3H-imidazo[4,5-b]pyridine-5,7-diamine] | 1 to 10
18 | COc1c(Cl)cccc1Nc1cc(NC(=O)C2CC2)nc2[nH]c(C)nc12 [I-103, N-(7-((3-chloro-2-methoxyphenyl)amino)-2-methyl-3H-imidazo[4,5-b]pyridin-5-yl)cyclopropanecarboxamide] | > 10
19 | COc1c(F)cccc1Nc1cc(NC(=O)C2CC2)nc2[nH]c(C)nc12 [I-104, N-(7-((3-fluoro-2-methoxyphenyl)amino)-2-methyl-3H-imidazo[4,5-b]pyridin-5-yl)cyclopropanecarboxamide] | > 10
20 | COc1c(C#N)cccc1Nc1cc(NC(=O)C2CC2)nc2[nH]c(C)nc12 [I-105, N-(7-((3-cyano-2-methoxyphenyl)amino)-2-methyl-3H-imidazo[4,5-b]pyridin-5-yl)cyclopropanecarboxamide] | > 10
21 | COc1ccccc1Nc1cc(NC(=O)C2CC2)nc2[nH]c(C)nc12 [I-106, N-(7-((2-methoxyphenyl)amino)-2-methyl-3H-imidazo[4,5-b]pyridin-5-yl)cyclopropanecarboxamide] | > 10
22 | COc1c(Nc2cc(NC(=O)C3CC3)nc3[nH]c(C)nc23)cccc1-c1cnn(C)c1 [I-107, N-(7-((2-methoxy-3-(1-methyl-1H-pyrazol-4-yl)phenyl)amino)-2-methyl-3H-imidazo[4,5-b]pyridin-5-yl)cyclopropanecarboxamide] | 1 to 10
23 | COc1c(Nc2cc(Nc3ccc(C(=O)N4CCCC4)c(C(F)(F)F)n3)nc3[nH]c(C)nc23)cccc1-c1nnn(C)n1 [I-108, (6-((7-((2-methoxy-3-(2-methyl-2H-tetrazol-5-yl)phenyl)amino)-2-methyl-3H-imidazo[4,5-b]pyridin-5-yl)amino)-2-(trifluoromethyl)pyridin-3-yl)(pyrrolidin-1-yl)methanone] | 0.1 to 0.5
24 | COc1c(Nc2cc(Nc3ccc(N4CCCC4=O)c(C#N)n3)nc3[nH]c(C)nc23)cccc1-c1nnn(C)n1 [I-109, 6-((7-((2-methoxy-3-(2-methyl-2H-tetrazol-5-yl)phenyl)amino)-2-methyl-3H-imidazo[4,5-b]pyridin-5-yl)amino)-3-(2-oxopyrrolidin-1-yl)picolinonitrile] | 0.1 to 0.5
25 | COc1cc(C(=O)N2CCCC2)ccc1Nc1cc(NC(=O)C2CC2)nc2[nH]c(C)nc12 [I-110, N-(7-((2-methoxy-4-(pyrrolidine-1-carbonyl)phenyl)amino)-2-methyl-3H-imidazo[4,5-b]pyridin-5-yl)cyclopropanecarboxamide] | 1 to 10
26 | COc1c(Nc2cc(Nc3cnc(C)c(C#N)n3)nc3[nH]c(C)nc23)cccc1-c1nnn(C)n1 [I-111, 6-((7-((2-methoxy-3-(2-methyl-2H-tetrazol-5-yl)phenyl)amino)-2-methyl-3H-imidazo[4,5-b]pyridin-5-yl)amino)-3-methylpyrazine-2-carbonitrile] | 1 to 10
27 | COc1c(Nc2cc(Nc3ccc(N4CC[C@H](OC)C4)c(C#N)n3)nc3[nH]c(C)nc23)cccc1-c1nnn(C)n1 [I-112, (S)-6-((7-((2-methoxy-3-(2-methyl-2H-tetrazol-5-yl)phenyl)amino)-2-methyl-3H-imidazo[4,5-b]pyridin-5-yl)amino)-3-(3-methoxypyrrolidin-1-yl)picolinonitrile] | 0.1 to 0.5
28 | COc1c(Nc2cc(Nc3ccc(N4CCC4)c(C#N)n3)nc3[nH]c(C)nc23)cccc1-c1nnn(C)n1 [I-113, 3-(azetidin-1-yl)-6-((7-((2-methoxy-3-(2-methyl-2H-tetrazol-5-yl)phenyl)amino)-2-methyl-3H-imidazo[4,5-b]pyridin-5-yl)amino)picolinonitrile] | 0.1 to 0.5
29 | COc1c(Nc2cc(NC(=O)C3CC3)nc3[nH]c(C)nc23)cccc1-c1nc(C)nn1C [I-114, N-(7-((3-(1,3-dimethyl-1H-1,2,4-triazol-5-yl)-2-methoxyphenyl)amino)-2-methyl-3H-imidazo[4,5-b]pyridin-5-yl)cyclopropanecarboxamide] | 1 to 10
30 | COc1c(Nc2cc(Nc3ccc(C(C)C)c(C#N)n3)nc3[nH]c(C)nc23)cccc1-c1nnn(C)n1 [I-115, 3-isopropyl-6-((7-((2-methoxy-3-(2-methyl-2H-tetrazol-5-yl)phenyl)amino)-2-methyl-3H-imidazo[4,5-b]pyridin-5-yl)amino)picolinonitrile] | 1 to 10
